Reference: patent publication US5731452A, “7-thiaprostaglandins and method of production thereof” (Teijin Limited, priority 1994, dated 1998)
pIC50: −log10 of the molar value. Values belong to the compound of their own block, whether it stands above or below them.

How the values were obtained:
[1] = tested on: cell migration induced by MCP-1 in human blood monocytes; assay: Activity for inhibiting cell migration induced by MCP-1 (human blood monocytes); type: cell-based; settings: Monocyte, 2 h, 20 ng/ml recombinant human MCP-1, 37° C., two hours
[2] = tested on: Rat Carotid Artery; assay: Suppressing thickening of intima after trauma to rat carotid artery endothelium by balloon catheter; type: in vivo, Wistar rat; settings: for thickening of the neointima of the carotid artery (in words) / Suppression rate (intima thickening): 3.2 μg/rat/hr s.c.; for Intima (area) / Media (area) / Intima/Media: 3.2 μg/rat/hr s.c. miniosmotic pump, day 14, average ± standard error; for Intima (area): 3 days before to 11 days after surgery; for Intima (area) / Intima/Media: * p < 0.05 vs control; for Suppression rate (intima thickening): (1-T/C)×100 of Intima/Media
Experimental: The test was performed in the following manner in accordance with the method of Clowes et al. (Lab. Invest., 49, 206, 1983). Male Wistar rats of a body weight of 300 to 350 g were used. The neck of each rat was opened under anesthesia by sodium pentobarbitol, then a balloon catheter (Fogarty, 2F) was inserted from the right external carotid artery until the starting portion of the common carotid artery. The balloon was expanded by saline to an extent causing a light resistance, then the catheter was pulled out in that state up to the carotid artery to give trauma to the intima. This procedure was repeated three times, then the catheter was withdrawn and the external carotid artery was ligated. After 14 days, the chest was opened under anesthesia by diethyl ether, refluxing and immobilization were performed from the aorti arch by a Karnoa solution (methanol:chloroform:acetic acid=6:3:1), then the right common carotid artery was excised and immobilized by neutral formalin solution. The immobilized carotid artery was dyed by Elastica van Gieson dye, then the areas of the media and thickened portion of the intima were measured by an image resolution device (LUZEX2D).
(§1) The test compound began to be administered subcutaneously at a rate of 3.2 μg/rat/hr using a miniosmotic pump buried in the back of the rat from three days before the surgery and was continued until 11 days after the surgery. The activity of the test compound in suppressing intima thickening was found from the following formula.

[3] = tested on: Rabbit Carotid Artery; assay: Suppressing thickening of intima after trauma to rabbit carotid artery endothelium by balloon catheter; type: in vivo, New Zealand white rabbit
Experimental: The test was performed in the following manner in accordance with the method of Clowes et al. (Lab. Invest., 49, 206, 1983). Use was made of New Zealand white rabbits (male) of approximately 4 kg body weight. The neck portion of each rabbit was opened under anesthesia by sodium pentobarbitol, then a balloon catheter (Fogarty, 3F) was inserted from the right external carotid artery until the starting portion of the common carotid artery. The balloon was expanded by saline to an extent causing a light resistance, then the catheter was pulled out in that state up to the carotid artery to give trauma to the intima. This procedure was performed once, then the catheter was withdrawn and the external carotid artery was ligated. After 10 days, the chest was opened under anesthesia by pentobarbitol and the right common carotid artery was removed and immobilized by a neutral formalin solution. The immobilized carotid artery was dyed by Elastica van Gieson dye, then the areas of the media and intima were measured by an image resolution device (LUZEX2D).
as §1, with “of 32 μg/rabbit/hr” for “of 3.2 μg/rat/hr”, “the rabbit” for “the rat”, “until 10” for “until 11”, “in inhibiting” for “in suppressing”
Intima thickening suppression rate (%)=(1-T/C)×100

[4] = tested on: rat platelet; assay: Rat platelet aggregation inhibiting activity; type: cell-based; settings: rat platelet rich plasma; adenosine 2-phosphate induced; 37° C., one minute
Experimental: (§2) Wistar rats (males, approximately 400 g) were made to fast for one day, the entire blood was removed from the chest artery under anesthesia by ether, then a 1/10 volume of 3.8% aqueous solution of sodium citrate was added and immediately mixed in. The solution was centrifuged at 1000 rpm for 10 minutes, then the upper layer was used as the platelet rich plasma. The lower layer was centrifuged at 3000 rpm for 10 minutes and the upper layer of that was used as the platelet poor plasma. The platelet rich plasma was diluted by the platelet poor plasma to give a number of platelets of 3.5×10^8 /mm^3. This was used for the measurement. Note that the measurement of the platelets was performed using an automatic blood cell counter MEK-4500 (Nihon Koden). The measurement of the platelet aggregation was performed by measuring the turbidity using an NBS HEMA TRACER 801 (M.C. Medical). 90 μl of the platelet solution was inserted in a cuvette, then 5 μl each of the test compounds was added to give the target final concentration. The result was heated for one minute at 37° C., then 5 μl of a 100 μM aqueous solution of adenosine 2-phosphate (M.C. Medical) was added to induce platelet aggregation. The aggregation inhibiting activity was found from the following formula.
(§3) Aggregation inhibiting rate (%)={1-(maximum change of turbidity at time of
(§4) addition of drug)/(maximum change of turbidity at time of non-addition of
(§5) Further, the concentration of the compound giving 50% inhibition was used as the IC50.

[5] = tested on: human platelet; assay: Human platelet aggregation inhibiting activity; type: cell-based; settings: 5 min, human plasma, adenosine 2-phosphate induced, 5 minutes at 37° C.
Experimental: as §2, §3, §4, §5
50 ml portions of venous blood supplied from healthy human volunteers were used to prepare the platelet rich plasma and the platelet poor plasma in the same way as above. The measurement of the platelet aggregation was performed in the same way as above. However, unlike with the measurement of the rat platelet aggregation inhibiting activity, the test compound was added to the platelet poor plasma in advance and warmed for 5 minutes at 37° C., then the platelet rich plasma was added to give a number of platelets of 3.5×10^8 /mm^3. At the same time, 5 μl of 100 μM an aqueous solution of adenosine 2-phosphate (M.C. Medical) was added to induce platelet aggregation. The aggregation inhibiting activity was calculated in the same way as mentioned above.

[6] = 32 μg/rabbit/hr s.c. miniosmotic pump, day 10, average ± standard error

- pIC50 [1]: 9.00
SMILES: CCCCC(C)CC(O)/C=C/[C@@H]1C(SCCCCCC(=O)OC)=C(OC(=O)CCC)C[C@H]1O (stereo partly shown)

SMILES: CCCC[C@@H](C)C[C@H](O)/C=C/[C@@H]1C(SCCCCCC(=O)OC)=C(OC(=O)CCC)C[C@H]1O [Example 2, methyl(11R,12S,13E,15S,17R)-9-butyryloxy-11,15-dihydroxy-17,20-dimethyl-7-thiaprosta-8,13-dienoate]
- thickening of the neointima of the carotid artery (in words) [2]: suppresses the thickening of the neointima of the carotid artery
- Intima (area) [2]: 0.155 mm^2
- Media (area) [2]: 0.197 mm^2
- Intima/Media [2]: 0.758
- Suppression rate (intima thickening) [2]: 45.8%
- Intima (area) ([3]; 32 μg/rabbit/hr s.c. miniosmotic pump, 3 days before to 10 days after surgery, day 10, average ± standard error): 0.055 mm^2
- Intima/Media [3, 6]: 0.152
- Media (area) [3, 6]: 0.367 mm^2
- Suppression rate (intima thickening) ([3]; (1-T/C)×100 of Intima/Media, 32 μg/rabbit/hr s.c.): 29.9%

SMILES: CCCC(=O)OC1=C(SCCCCCC(=O)OC)[C@@H](/C=C/[C@@H](O)C2CCCCC2)[C@H](O)C1 [Example 17, methyl(11R,12S,13E,15S)-9-butyryloxy-11,15-dihydroxy-15-cyclohexyl-16,17,18,19,20-pentanor-7-thiaprosta-8,13-dienoate]
- thickening of the neointima of the carotid artery (in words) [2]: suppresses the thickening of the neointima of the carotid artery
- Intima (area) [2]: 0.167 mm^2
- Media (area) [2]: 0.211 mm^2
- Intima/Media [2]: 0.784
- Suppression rate (intima thickening) [2]: 37.5%

- pIC50 [4]: 6.52
SMILES: CCCCC[C@H](O)/C=C/[C@@H]1C(SCCCCCC(=O)O)=C(OC(=O)CCC)C[C@H]1O [drawing 181]

- pIC50 [5]: 6.92
SMILES: CCCC(=O)OC1=C(SCCCCCC(=O)OC)[C@@H](/C=C/[C@@H](O)C2CCCCC2)[C@H](O)C1 [drawing 182]

- pIC50 [5]: 7.24
SMILES: CCCCC(C)C[C@H](O)/C=C/[C@@H]1C(SCCCCCC(=O)OC)=C(OC(=O)CCC)C[C@H]1O (stereo partly shown) [drawing 183]

- pIC50 [5]: 7.30
SMILES: CCCC(=O)OC1=C(SCCCCCC(=O)OC)[C@@H](/C=C/C(O)Cc2ccccc2)[C@H](O)C1 (stereo partly shown) [drawing 184]

- pIC50 [5]: 7.31
SMILES: CCCC(=O)OC1=C(SCCCCCC(=O)OC)[C@@H](/C=C/C(O)[C@H](C)c2ccccc2)[C@H](O)C1 (stereo partly shown) [drawing 185]

- pIC50 [5]: 6.98
SMILES: CCCC(=O)OC1=C(SCCCCCC(=O)OC)[C@@H](/C=C/C(O)C(C)c2ccccc2)[C@H](O)C1 (stereo partly shown) [drawing 186]

- pIC50 [5]: 7.23
SMILES: CCCCC(C)C[C@H](O)/C=C/[C@@H]1C(SCCCOCC(=O)OC)=C(OC(=O)CCC)C[C@H]1O (stereo partly shown) [drawing 187]
